One data set concerns the target T1, DPAGT1 Arg301His (Homo sapiens, UniProt Q9H3H5, R301H).
T1 construct: combined with the LIC-adapted primers to amplify the complete DPAGT1 gene, including the desired mutations; 6xHis purification tag with TEV site (N, cleaved yes); made in house; host or cells: Spodoptera frugiperda Sf9 insect cells (baculovirus)
T1 sequence (Q9H3H5 1-408 R301H): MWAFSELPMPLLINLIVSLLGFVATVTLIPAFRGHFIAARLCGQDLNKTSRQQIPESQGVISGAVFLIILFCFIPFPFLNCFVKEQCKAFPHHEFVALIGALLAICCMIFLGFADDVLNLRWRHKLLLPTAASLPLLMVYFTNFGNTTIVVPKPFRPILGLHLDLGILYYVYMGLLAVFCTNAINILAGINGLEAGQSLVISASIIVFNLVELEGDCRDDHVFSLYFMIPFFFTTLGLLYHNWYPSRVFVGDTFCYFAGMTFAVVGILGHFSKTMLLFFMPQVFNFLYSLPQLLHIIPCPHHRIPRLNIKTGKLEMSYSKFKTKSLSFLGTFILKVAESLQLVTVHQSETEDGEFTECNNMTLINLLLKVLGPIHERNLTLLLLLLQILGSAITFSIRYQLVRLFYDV
In words: Thermostability assay (label free differential scanning fluorimetry). The following applies: 50 μM compound. The data set is classed as binding, H. sapiens. As for the experimental part: (§1) Samples with a volume of 40 μl were prepared containing 0.5 mg/ml protein and 50 μM compound or 5% DMSO in GFB. A glass capillary was dipped into each sample, with the capillary held horizontally to ensure that the capillary was full of the sample. The capillaries were placed on the capillary holder on the Nanotemper Prometheus. Technical triplicates of each sample were prepared, and each experiment was conducted with biological triplicates of each protein. PR.ThermControl software was used to run the experiment and analyse the data. A melting curve from 20 °C – 95 °C at 5 °C/min was performed. The minimum of the first derivative of the 330/350nm ratio was used to determine the Tm1/2.
In general terms: DSF heats the sample and reads unfolding from a dye or from intrinsic fluorescence.

The target in another data set is T2, DPAGT1 WT (Homo sapiens, UniProt Q9H3H5).
T2 construct: H. sapiens DPAGT1 (1-408, N-terminal 6 x HIS tag, TEV cleavage site); 6xHis purification tag with TEV site (N, cleaved yes); made in house; host or cells: Spodoptera frugiperda Sf9 insect cells (baculovirus)
T2 sequence (Q9H3H5 1-408): T1 sequence (Q9H3H5 1-408 R301H) with H301R
The description is as above. As to conditions: 50 μM compound. It is filed as binding, H. sapiens. As to the method: as §1

The test system of the next data set is Mtb H37Rv ATCC27294. Description: Minimum inhibitory concentrations testing against Mtb. It is filed as cell-based, Mycobacterium tuberculosis. The following applies: for MIC: Mycobacterium tuberculosis, 168 h.
The next data set deals with HepG2 cells. Description: Cell proliferation assay (MTS). It is filed as cell-based, human. The following applies: for LD50 values, HepG2: MTS cell proliferation assay, 24 hrs, highest concentration 400 µg mL-1; for Minimal Lethal Dose, HepG2: serial 2-fold dilutions (Table S6). On the technique in general: Formazan colour is commonly taken as a measure of viable cells.

The test system of the next data set is HEK293 cells. In words: Cell proliferation assay (MTS). The data set is classed as cell-based, human. As to conditions: for LD50 values, HEK293: MTS cell proliferation assay, 24 hrs, highest concentration 400 µg mL-1; for Minimal Lethal Dose, HEK 293: serial 2-fold dilutions (Table S6).
For a further data set, the system named is Raji cells. Description: Cell proliferation assay (MTS). It is filed as cell-based, human. The following applies: 24 hrs.
The next data set concerns B. cereus ATCC11778. Description: Micro-broth dilution and drop plate antimicrobial susceptibility test. The following applies: for Relative Therapeutic Index (RTI), B. cereus NRRL 11778: minimal lethal dose / MIC, 800 μg mL-1 used for >400. The data set is classed as cell-based, Bacillus cereus. On the technique in general: Broth dilution looks for growth in wells or tubes with falling amounts of substance.

For the next data set, the system named is B. subtilis EC1524. The description is as above. The data set is classed as cell-based, Bacillus subtilis. The following applies: for Relative Therapeutic Index (RTI), B. subtilis EC1524: minimal lethal dose / MIC, 800 μg mL-1 used for >400.
[1] abbreviates: Bacillus cereus, ATCC 11778 / NRRL11778, read-out: Minimal Inhibitory Concentration, B. cereus NRRL 11778.
The mark [2] stands for this setting: Bacillus subtilis, EC1524, read-out: Minimal Inhibitory Concentration, B. subtilis EC1524.

The term IC50 denotes the point on the concentration scale where inhibition reaches its midpoint. What is called MBC is the lowest tested concentration that kills the bacteria rather than only halting them. A higher MBC goes with less potent killing.

Numbering of substitutions follows the chain as printed. In brackets after ≈: the same amount, converted by molar mass. Where a name gives a salt, the structure may show the parent alone. Read-outs that look alike come from different tables or passages of the source. Where only a bound is given, the exact number is not on record here.

Consider `N[C@H]1[C@H](O[C@H]2O[C@H](CO)[C@@H](O)[C@H](O)[C@H]2N)O[C@H](C[C@@H](O)[C@H]2O[C@@H](n3ccc(=O)[nH]c3=O)[C@H](O)[C@@H]2O)[C@H](O)[C@@H]1O` [TUN, α-D-glucosamine-(1”-11')-tunicamyl uracil dihydrochloride], for which the “Thermostability (Tm1/2) with added compound” value at DPAGT1 Arg301His was 81.2±0.5 °C; on DPAGT1 WT, 83.0±0.4 °C. Also, the MIC was above 60 µg/mL with Mtb H37Rv ATCC27294 (1-week in 7H9/ADC/Tw (Table S6), read-out: Minimal Inhibitory Concentration, Mtb H37RV a); above 60 µg/mL in the data set with Mtb H37Rv ATCC27294 (1-week in GAST/Fe (Table S6), read-out: Minimal Inhibitory Concentration, Mtb H37RV b); above 60 µg/mL in the data set on Mtb H37Rv ATCC27294 (Mtb H37Rv, minimal growth medium, read-out: 1-week MIC in GAST/Fe); above 60 µg/mL in the data set with Mtb H37Rv ATCC27294 (Mtb H37Rv, rich 7H9-based growth medium, read-out: 1-week MIC in 7H9/ADC/Tw); 100 µg/mL in the data set on B. cereus ATCC11778 (setting [1]); 100 µg/mL with B. subtilis EC1524 (setting [2]). Moreover, the “LD50 values, HepG2” value in the data set on HepG2 cells was “N/A (N/A = not available. No or low cytotoxicity observed at highest, saturating concentration tested (400 µg mL-1))”. In the data set with HepG2 cells, the “Minimal Lethal Dose, HepG2” value is above 400 µg/mL. Further, the “LD50 values, HEK293” value with HEK293 cells is on record as “N/A (N/A = not available. No or low cytotoxicity observed at highest, saturating concentration tested (400 µg mL-1))”. Further, the “Minimal Lethal Dose, HEK 293” value in the data set with HEK293 cells was above 400 µg/mL. For the same molecule, the “LD50 values, Raji” value with Raji cells is 698.3 µg/mL. Besides, the “Relative Therapeutic Index (RTI), B. cereus NRRL 11778” value in the data set with B. cereus ATCC11778 amounted to 8. Besides, in the data set with B. subtilis EC1524, the “Relative Therapeutic Index (RTI), B. subtilis EC1524” value was determined as 8.

For the molecule `CCCCCCCC(=O)N[C@H]1[C@H](O[C@H]2O[C@H](CO)[C@@H](O)[C@H](O)[C@H]2NC(=O)CCCCCCC)O[C@H](C[C@@H](O)[C@H]2O[C@@H](n3ccc(=O)[nH]c3=O)[C@H](O)[C@@H]2O)[C@H](O)[C@@H]1O` [TUN-8,8, Di-N-octanoyl-tunicamycin], the “Relative Therapeutic Index (RTI), Mtb H37RV a” value in the data set with Mtb H37Rv ATCC27294 was 1140. The MIC was found to be 0.7 ± 3.3 µg/mL (≈ 0.855 µM) with Mtb H37Rv ATCC27294 (read-out: 1-week MIC in 7H9/ADC/Tw); 0.14 ± 0.1 µg/mL (≈ 0.171 µM) in the data set on Mtb H37Rv ATCC27294 (read-out: 1-week MIC in GAST/Fe); 0.7 µg/mL (≈ 0.855 µM) in the data set on Mtb H37Rv ATCC27294 (read-out: Minimal Inhibitory Concentration, Mtb H37RV a); 0.14 µg/mL (≈ 0.171 µM) in the data set with Mtb H37Rv ATCC27294 (read-out: Minimal Inhibitory Concentration, Mtb H37RV b); 5.2 ± 1.8 µg/mL (≈ 6.35 µM) in the data set with B. cereus ATCC11778 (Bacillus cereus, ATCC11778); 6.25 µg/mL (≈ 7.63 µM) with B. cereus ATCC11778 (setting [1]). Besides, the MIC in the data set with B. subtilis EC1524 (Bacillus subtilis, EC1524) was found to be 0.65 ± 0.22 µg/mL (≈ 0.794 µM); in the data set on B. subtilis EC1524 (setting [2]) it was 0.78 µg/mL (≈ 0.952 µM). In addition, the “LD50 values, HepG2” value in the data set with HepG2 cells is “N/A (N/A = not available. No or low cytotoxicity observed at highest, saturating concentration tested (400 µg mL-1))”. Further, the “Minimal Lethal Dose, HepG2” value with HepG2 cells is above 400 µg/mL. Further, the “LD50 values, HEK293” value with HEK293 cells is “N/A (N/A = not available. No or low cytotoxicity observed at highest, saturating concentration tested (400 µg mL-1))”. Moreover, in the data set on HEK293 cells, the “Minimal Lethal Dose, HEK 293” value was above 400 µg/mL. The “LD50 values, Raji” value with Raji cells was determined as 211.05 ± 125.94 µg/mL. Besides, the IC50 in the data set on B. cereus ATCC11778 (Bacillus cereus, ATCC11778) was 0.78 µg/mL (≈ 0.952 µM); with B. subtilis EC1524 (Bacillus subtilis, EC1524), 0.2 µg/mL (≈ 0.244 µM). Besides, the minimal bactericidal concentration (MBC) was above 50 µg/mL with B. cereus ATCC11778 (Bacillus cereus, ATCC11778) and above 0.78 µg/mL against B. subtilis EC1524 (Bacillus subtilis, EC1524). Further, in the data set with B. cereus ATCC11778, the “Relative Therapeutic Index (RTI), B. cereus NRRL 11778” value is 128. For the same molecule, in the data set with B. subtilis EC1524, the “Relative Therapeutic Index (RTI), B. subtilis EC1524” value was 1026.

The values above are taken from article PMC6218659, “Structures of DPAGT1 Explain Glycosylation Disease Mechanisms and Advance TB Antibiotic Design” (Cell, 2018).
